In paper PMC12340637, “Transport of Small Aliphatic Amines by Polyspecific Solute Carriers: Deciphering Structure–Function Relationships” (ACS Pharmacology & Translational Science, 2025):
Marks after values point to notes of the source that are not given here.

Assays:
[1] = molecular target: T1, OCT1 (SLC22A1) (Homo sapiens, UniProt O15245); assay: in vitro; details: pH 7.4
T1 sequence (O15245 1-554): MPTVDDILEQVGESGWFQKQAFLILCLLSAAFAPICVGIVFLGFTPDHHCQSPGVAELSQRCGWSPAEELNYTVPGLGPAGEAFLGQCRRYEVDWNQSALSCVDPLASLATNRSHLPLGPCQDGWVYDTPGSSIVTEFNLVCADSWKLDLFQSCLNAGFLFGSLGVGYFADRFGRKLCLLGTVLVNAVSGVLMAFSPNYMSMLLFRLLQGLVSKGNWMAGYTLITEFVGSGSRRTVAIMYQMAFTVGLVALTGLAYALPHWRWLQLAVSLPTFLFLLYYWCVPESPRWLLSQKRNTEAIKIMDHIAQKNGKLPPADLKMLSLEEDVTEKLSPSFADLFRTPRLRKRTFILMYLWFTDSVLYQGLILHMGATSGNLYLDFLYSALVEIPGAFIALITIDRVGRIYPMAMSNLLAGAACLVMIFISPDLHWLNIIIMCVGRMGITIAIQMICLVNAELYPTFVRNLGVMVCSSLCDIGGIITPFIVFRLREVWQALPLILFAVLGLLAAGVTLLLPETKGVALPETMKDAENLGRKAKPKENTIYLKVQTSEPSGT

[2] = molecular target: T2, MATE1 (SLC47A1) (Homo sapiens, UniProt Q96FL8); assay: in vitro; details: pH 7.4
T2 sequence (Q96FL8 1-570): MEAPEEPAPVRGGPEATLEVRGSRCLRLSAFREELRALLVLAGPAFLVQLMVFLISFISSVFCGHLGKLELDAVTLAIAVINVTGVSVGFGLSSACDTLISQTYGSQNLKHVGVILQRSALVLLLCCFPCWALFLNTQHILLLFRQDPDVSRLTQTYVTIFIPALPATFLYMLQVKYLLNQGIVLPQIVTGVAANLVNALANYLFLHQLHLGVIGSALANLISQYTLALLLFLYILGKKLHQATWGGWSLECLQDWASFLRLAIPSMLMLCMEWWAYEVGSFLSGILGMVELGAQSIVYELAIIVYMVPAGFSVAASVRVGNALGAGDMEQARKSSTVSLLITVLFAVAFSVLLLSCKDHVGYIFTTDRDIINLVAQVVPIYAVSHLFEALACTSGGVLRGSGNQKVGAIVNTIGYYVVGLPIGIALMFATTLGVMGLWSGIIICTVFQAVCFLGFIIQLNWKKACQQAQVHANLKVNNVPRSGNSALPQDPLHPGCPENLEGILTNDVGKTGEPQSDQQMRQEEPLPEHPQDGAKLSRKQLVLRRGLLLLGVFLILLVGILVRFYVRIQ

[3] = molecular target: T3, MATE2-K (SLC47A2) (Homo sapiens, UniProt Q86VL8); assay: in vitro; details: pH 7.4
[4] = molecular target: T4, OCT2 (SLC22A2) (Homo sapiens, UniProt O15244); assay: Cellular uptake into OCT2-overexpressing HEK293 cells vs EV control cells (HPLC-MS/MS); details: for K m (±SEM) / v max (±SEM): OCT2, net uptake, Michaelis–Menten; for higher v max of one enantiomer over the other, OCT2: label = enantiomer with higher v max; for uptake ratio OCT2 (transporter-overexpressing cells over EV control cells): mean (±SD, N): 2.5 μM substrate (§), 2 min, HEK293
T4 sequence (O15244 1-555): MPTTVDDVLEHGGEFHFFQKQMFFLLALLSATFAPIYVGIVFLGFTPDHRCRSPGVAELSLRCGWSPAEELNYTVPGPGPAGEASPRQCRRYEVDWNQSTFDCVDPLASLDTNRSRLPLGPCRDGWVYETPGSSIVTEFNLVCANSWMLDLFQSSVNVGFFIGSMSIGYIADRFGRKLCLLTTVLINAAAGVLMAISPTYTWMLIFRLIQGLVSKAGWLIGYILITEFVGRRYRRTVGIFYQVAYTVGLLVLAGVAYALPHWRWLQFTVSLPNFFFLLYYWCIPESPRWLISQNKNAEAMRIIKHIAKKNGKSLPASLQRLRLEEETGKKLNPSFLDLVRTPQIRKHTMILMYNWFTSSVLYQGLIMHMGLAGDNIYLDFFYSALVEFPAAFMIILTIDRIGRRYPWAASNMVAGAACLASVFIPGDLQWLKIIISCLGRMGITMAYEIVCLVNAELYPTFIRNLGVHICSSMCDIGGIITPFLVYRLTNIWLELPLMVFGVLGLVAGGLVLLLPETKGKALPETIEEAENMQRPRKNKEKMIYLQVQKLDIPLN

[5] = molecular target: T4, OCT2 (SLC22A2); assay: in vitro; details: pH 7.4
[6] = molecular target: T1, OCT1 (SLC22A1); assay: Cellular uptake into OCT1-overexpressing HEK293 cells vs EV control cells (HPLC-MS/MS); details: for uptake ratio OCT1 (transporter-overexpressing cells over EV control cells): mean (±SD, N): 2.5 μM substrate (§), 2 min, HEK293
[7] = molecular target: T5, OCT3 (SLC22A3) (Homo sapiens, UniProt O75751); assay: Cellular uptake into OCT3-overexpressing HEK293 cells vs EV control cells (HPLC-MS/MS); details: for uptake ratio OCT3 (transporter-overexpressing cells over EV control cells): mean (±SD, N): 2.5 μM substrate (§), 2 min, HEK293; for stereoselectivity OCT3 (uptake ratio of the more strongly transported enantiomer divided by that of the other): label = favoured enantiomer
T5 sequence (O75751 1-556): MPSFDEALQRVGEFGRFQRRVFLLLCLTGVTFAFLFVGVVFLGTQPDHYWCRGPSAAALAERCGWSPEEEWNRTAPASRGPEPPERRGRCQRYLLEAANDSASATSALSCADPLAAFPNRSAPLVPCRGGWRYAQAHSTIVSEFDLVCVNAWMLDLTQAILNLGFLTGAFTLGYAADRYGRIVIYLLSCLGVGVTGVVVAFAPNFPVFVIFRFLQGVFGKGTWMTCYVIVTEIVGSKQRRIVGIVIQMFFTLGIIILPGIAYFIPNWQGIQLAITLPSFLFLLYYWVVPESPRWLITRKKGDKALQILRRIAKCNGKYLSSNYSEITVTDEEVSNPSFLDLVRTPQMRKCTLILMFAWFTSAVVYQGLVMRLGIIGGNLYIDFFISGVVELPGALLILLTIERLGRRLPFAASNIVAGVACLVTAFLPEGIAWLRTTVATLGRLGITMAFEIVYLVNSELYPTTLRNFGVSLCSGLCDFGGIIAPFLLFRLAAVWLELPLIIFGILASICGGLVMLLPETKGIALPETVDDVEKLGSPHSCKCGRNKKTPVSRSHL

[8] = molecular target: T2, MATE1 (SLC47A1); assay: Cellular uptake into MATE1-overexpressing HEK293 cells vs EV control cells (HPLC-MS/MS); details: for uptake ratio MATE1 (transporter-overexpressing cells over EV control cells): mean (±SD, N): 2.5 μM substrate, 1 min, 30 mM NH4Cl preincubation, HEK293
[9] = molecular target: T3, MATE2-K (SLC47A2); assay: Cellular uptake into MATE2-K-overexpressing HEK293 cells vs EV control cells (HPLC-MS/MS); details: 2.5 μM substrate, 1 min, 30 mM NH4Cl preincubation, HEK293
[10] = listed as (S)-(+)-2-amino-1-Pentanol
[11] = OCT1, net uptake, Michaelis–Menten
[12] = MATE1, net uptake, Michaelis–Menten

T3 sequence (Q86VL8 1-566 isoform Q86VL8-3): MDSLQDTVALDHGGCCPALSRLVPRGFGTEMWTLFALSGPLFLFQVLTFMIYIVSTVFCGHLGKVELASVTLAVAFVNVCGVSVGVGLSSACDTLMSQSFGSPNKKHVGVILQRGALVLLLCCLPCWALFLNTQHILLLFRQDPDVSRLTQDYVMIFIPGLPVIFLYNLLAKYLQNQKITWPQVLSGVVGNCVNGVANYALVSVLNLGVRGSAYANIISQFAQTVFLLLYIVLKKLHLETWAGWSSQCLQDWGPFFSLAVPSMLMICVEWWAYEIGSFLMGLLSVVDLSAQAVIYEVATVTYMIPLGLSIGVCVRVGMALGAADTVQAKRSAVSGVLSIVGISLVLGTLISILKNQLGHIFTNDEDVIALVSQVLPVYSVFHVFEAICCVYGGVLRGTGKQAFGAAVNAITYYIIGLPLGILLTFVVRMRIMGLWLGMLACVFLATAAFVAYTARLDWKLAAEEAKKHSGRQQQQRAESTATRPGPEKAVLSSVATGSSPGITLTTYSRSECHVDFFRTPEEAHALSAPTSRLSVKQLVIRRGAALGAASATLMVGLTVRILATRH

| K m (±SEM) [4] | v max (±SEM) [4] | higher v max of one enantiomer over the other, OCT2 [4] | uptake ratio OCT1 (transporter-overexpressing cells over EV control cells): mean (±SD, N) [6] | uptake ratio OCT2 (transporter-overexpressing cells over EV control cells): mean (±SD, N) [4] | uptake ratio OCT3 (transporter-overexpressing cells over EV control cells): mean (±SD, N) [7] | stereoselectivity OCT3 (uptake ratio of the more strongly transported enantiomer divided by that of the other) [7] | uptake ratio MATE1 (transporter-overexpressing cells over EV control cells): mean (±SD, N) [8] | uptake ratio MATE2K (transporter-overexpressing cells over EV control cells): mean (±SD, N) [9] | SMILES | selectivity ratio at 2 min [1] | selectivity ratio at 1 min [2] | selectivity ratio at 1 min [3] | selectivity ratio at 2 min [5] | further results |
| --- | --- | --- | --- | --- | --- | --- | --- | --- | --- | --- | --- | --- | --- | --- |
| 362(±156) μM | 4970 (±967) pmol/mg protein/min | 2.0 fold | – | – | – | 1.04-fold for (S) | – | – | CC(C)[C@H](N)CO [L-valinol] | – | – | 1.5 | 1.04 | – |
| – | – | – | – | – | – | 1.4-fold for (R) | – | – | CC(C)C[C@@H](N)CO [(R)-(−)-leucinol] | – | 1.1 | – | – | – |
| 329 (±190) μM | 2488 (±573) pmol/mg protein/min | – | – | – | – | – | – | – | CC(C)[C@@H](N)CO [D-valinol] | 1.3 | 1.4 | – | – | – |
| – | – | – | 1.4 (0.4, 3) | 10.8 (1.4, 3) ^b | 2.1 (0.5, 3) | 1.9-fold for(S) ^a | 0.7 (0.2, 3) | 0.9 (0.3, 3) | CC(C)(C)[C@H](N)CO [L-tert-Leucinol] | 1.3 | – | – | 1.4 | uptake ratio OCT1 (transporter-overexpressing cells over EV control cells): mean (±SD, N) ([6]; listed as L-tert-leucinol): 1.4; uptake ratio OCT2 (transporter-overexpressing cells over EV control cells): mean (±SD, N) ([4]; listed as L-tert-leucinol): 10.8; uptake ratio OCT3 (transporter-overexpressing cells over EV control cells): mean (±SD, N) ([7]; listed as L-tert-leucinol): 2.1; uptake ratio MATE1 (transporter-overexpressing cells over EV control cells): mean (±SD, N) ([8]; listed as L-tert-leucinol): 0.7; uptake ratio MATE2K (transporter-overexpressing cells over EV control cells): mean (±SD, N) ([9]; listed as L-tert-leucinol): 0.9 |

More lines, now with the values behind:

| SMILES | K m (±SEM) [4] | v max (±SEM) [4] | higher v max of one enantiomer over the other, OCT2 [4] | uptake ratio OCT1 (transporter-overexpressing cells over EV control cells): mean (±SD, N) [6] | uptake ratio OCT2 (transporter-overexpressing cells over EV control cells): mean (±SD, N) [4] | uptake ratio OCT3 (transporter-overexpressing cells over EV control cells): mean (±SD, N) [7] | stereoselectivity OCT3 (uptake ratio of the more strongly transported enantiomer divided by that of the other) [7] | uptake ratio MATE1 (transporter-overexpressing cells over EV control cells): mean (±SD, N) [8] | uptake ratio MATE2K (transporter-overexpressing cells over EV control cells): mean (±SD, N) [9] | selectivity ratio at 2 min [1] | selectivity ratio at 1 min [2] | selectivity ratio at 1 min [3] | selectivity ratio at 2 min [5] | further results |
| --- | --- | --- | --- | --- | --- | --- | --- | --- | --- | --- | --- | --- | --- | --- |
| CCCC[C@@H](N)CO [(R)-(−)-2-amino-1-hexanol] | 59 (±11) μM | 1342 (±84) ^b pmol/mg protein/min | 1.7 fold | – | – | – | – | – | – | 1.1 | 1.2 | 1.3 | – | – |
| CCC[C@H](N)CO [(S)-(+)-2-amino-1-pentanol] | 245 (±83) μM | 2342 (±290) ^a pmol/mg protein/min | 1.6 fold | 1.0 (0.3, 4) | 6.0 (1.7, 4) ^b | 1.1 (0.2, 4) | 1.1-fold for (S) | 1.1 (0.1, 4) | 1.5 (0.4, 4) | – | – | – | 1.2 | uptake ratio OCT1 (transporter-overexpressing cells over EV control cells): mean (±SD, N) [6, 10]: 1.0; uptake ratio OCT2 (transporter-overexpressing cells over EV control cells): mean (±SD, N) [4, 10]: 6.0; K m (±SEM) ([4]; listed as (S)-2-amino-1-pentanol): 245 µM; uptake ratio OCT3 (transporter-overexpressing cells over EV control cells): mean (±SD, N) [7, 10]: 1.1; uptake ratio MATE1 (transporter-overexpressing cells over EV control cells): mean (±SD, N) [8, 10]: 1.1; uptake ratio MATE2K (transporter-overexpressing cells over EV control cells): mean (±SD, N) [9, 10]: 1.5 |
| CC(C)(C)[C@@H](N)CO [(R)-(−)-tert-leucinol] | – | – | – | – | – | – | – | – | – | – | 1.3 | 1.5 | – | – |
| CC(C)C[C@H](N)CO [(S)-(+)-leucinol] | – | – | – | – | – | – | – | – | – | – | – | – | 1.2 | – |
| CCCC[C@H](N)CO [(S)-(+)-2-amino-1-hexanol] | 39 (±12) μM | 786 (±72) ^b pmol/mg protein/min | – | – | – | – | 1.3-fold for (S) | – | – | – | – | – | 1.3 | – |
| CC(N)CCCC(C)(C)O (stereo not shown) [heptaminol] | 1089 (±213) μM | 9730 (±1210) pmol/mg protein/min | – | 11.3 (4.6, 3) | 8.7 (5.0, 3) | 1.1 (0.29, 4) | – | 6.6 (1.3, 3) ^a | 1.0 (0.2, 3) | – | – | – | – | K m (±SEM) [6, 11]: 241 (±68) μM; v max (±SEM) [6, 11]: 1480 (±174) pmol/mg protein/min; K m (±SEM) [8, 12]: 154 (±18) μM; v max (±SEM) [8, 12]: 8061 (±283) pmol/mg protein/min; CLint of MATE1 higher than that of OCT1 ([8]; MATE1 vs OCT1): 6.0 fold; CLint of MATE1 higher than that of OCT2 ([8]; MATE1 vs OCT2): 3.7 fold |
